Laboratory results published in patent US20070135383A1, “Phospholipase inhibitors, including multi-valent phospholipase inhibitors, and use thereof, including as lumen-localized phospholipase inhibitors” (priority 2005, published 2007).
Where two headings read alike, the source gives them in different places.

Columns and labels:
[1] = target: T1, porcine group 1B PLA2 (pps PLA2) (Sus scrofa, UniProt P00592); test: Fluorimetric PPyrPM assay for group 1B PLA2 inhibition (Example 12); format: biochemical
T1 construct: purchased
T1 sequence (P00592 23-146): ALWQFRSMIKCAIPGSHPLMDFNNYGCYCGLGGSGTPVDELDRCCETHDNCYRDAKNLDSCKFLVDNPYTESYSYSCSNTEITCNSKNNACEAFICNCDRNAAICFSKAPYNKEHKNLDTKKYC
Excerpt: (§1) In this example, a fluorimetric assay procedure was used to evaluate the indole and indole-related compounds of the invention as inhibitors of group 1B phospholipase A2 (PLA2) from human, mouse and porcine. A description of this assay is found in articles: Leslie, C C and Gelb, M H (2004) Methods in Molecular Biology “Assaying phospholipase A2 activity”, 284:229-242; Singer, A G, et al. (2002) Journal of Biological Chemistry “Interfacial kinetic and binding properties of the complete set of human and mouse groups I, II, V, X, and XII secreted phospholipases A2”, 277:48535-48549, which are incorporated herein as references.
(§2) In general, this assay used a phosphatidylmethanol substrate with a pyrene fluorophore on the terminal end of the sn-2 fatty acyl chain. Without being bound by theory, close proximity of the pyrenes from neighboring phospholipids in a phospholipid vesicle caused the spectral properties to change relative to that of monomeric pyrene. Bovine serum albumin was present in the aqueous phase and captured the pyrene fatty acid when it is liberated from the glycerol backbone owing to the PLA2-catalyzed reaction. However, a potent inhibitor can inhibit the liberation of pyrene fatty acid from the glycerol backbone. […] The effect of a given inhibitor and inhibitor concentration on human, mouse and porcine phospholipase was determined.
(§3) The following reagents and equipments were obtained from commercial vendors: • 1. Porcine group 1B phospholipase A2 • 2. 1-hexadecanoyl-2-(1-pyrenedecanoyl)-sn-glycero-3-phosphomethanol (PPyrPM) • 3. Bovine serum albumin (BSA, fatty acid free) • 4. 2-Amino-2-(hydroxymethyl)-1,3-propanediol, hydrochloride (Tris-HCl) • 5. Calcium chloride • 6. Potassium chloride • 7. Solvents: DMSO, toluene, isopropanol, ethanol • 8. Molecular Devices SPECTRAmax microplate spectrofluorometer • 9. Costar 96 well black wall/clear bottom plate
(§4) The following reagents were prepared: • 10. PPyrPM stock solution (1 mg/ml) in toluene:isopropanol (1:1) • 11. ILY104 inhibitor stock solution (10 mM) in DMSO • 12. 3% (w/v) bovine serum albumin (BSA) • 13. Stock buffer: 50 mM Tris-HCl, pH 8.0, 50 mM KCl and 1 mM CaCl2
The following procedure was performed to evaluate the inhibitory potency of the evaluated compounds. • 14. An assay buffer was prepared by adding 3 ml 3% BSA to 47 ml stock buffer. • 15. Solution A was prepared by adding serially diluted inhibitors to the assay buffer. Inhibitors were three-fold diluted in stock buffer in a series of 8 from 15 uM. • 16. Solution B was prepared by adding human, mouse or porcine PLA2 to the assay buffer. This solution was prepared immediately before use to minimize enzyme activity loss. • 17. Solution C was prepared by adding 30 ul PPyrPM stock solution to 90 ul ethanol, and then all 120 ul of PPyrPM solution was transferred drop-wise over approximately 1 min to the continuously stirring 8.82 ml assay buffer to form a final concentration of 4.2 uM PPyrPM vesicle solution. • 18. The SPECTRAmax microplate spectrofluorometer was set at 37° C. • 19. 100 ul of solution A was added to each inhibition assay well of a costar 96 well black wall/clear bottom plate • 20. 100 ul of solution B was added to each inhibition assay well of a costar 96 well black wall/clear bottom plate. • 21. 100 ul of solution C was added to each inhibition assay well of a costar 96 well black wall/clear bottom plate. • 22. The plate was incubated inside the spectrofluorometer chamber for 3 min. • 23. The fluorescence was read using an excitation of 342 nm and an emission of 395 nm.
Evaluated compounds were tested in duplicate and their values were averaged to plot the inhibition curve and calculate the IC50. Compared to uninhibited controls, lower fluorescent signal at an emission of 395 nm in test reactions evidenced inhibition of PLA2. […] Compounds initially found to be active were repeated to confirm their inhibitory activity. […]

[2] = target: T2, mouse group 1B PLA2 (mps PLA2) (Mus musculus, UniProt Q9Z0Y2); test: as above; format: biochemical
T2 construct: made in house; host or cells: E. coli
T2 sequence (Q9Z0Y2 23-146): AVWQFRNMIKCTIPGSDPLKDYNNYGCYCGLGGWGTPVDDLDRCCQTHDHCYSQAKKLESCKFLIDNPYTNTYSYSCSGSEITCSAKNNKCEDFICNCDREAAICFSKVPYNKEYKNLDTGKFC
Excerpt: as §1, §2
(§5) Recombinant human and mouse group 1B PLA2 were cloned and expressed in E. coli as insoluble inclusion bodies. The inclusion bodies were isolated and purified by sonicating cell pellet in lysis buffer (50 mM Tris-HCl pH 7.0, 250 mM NaCl, 0.5% Triton 100), centrifugation at 12,000×g, and washing three times in washing buffer (20 mM Tris-HCl pH 7.0, 250 mM NaCl, 0.5% Triton 100). Then the inclusion bodies were dissolved in dissolving buffer (50 mM Tris-HCl pH 7.0, 250 mM NaCl, 6 M Guanidine-HCl, 1 mM DTT) and dialyzed four times against 10 volumes of refolding buffer (20 mM Tris-HCl pH 7.0, 250 mM NaCl, 0.5M Guanidine-HCl, 5% (w/w) Glycerol, 2 mM reduced glutathione and 0.4 mM oxidized glutathione) at 4° C. The correctly refolded proteins were concentrated using Amicon Stirred cell under nitrogen pressure (<70 psi) and dialyzed against 10 volumes of 50 mM Tris-HCl pH 7.0, 250 mM NaCl and 5% (w/w) glycerol. Human and mouse group 1B PLA2 were further purified by High S ion exchange and gel filtration columns.
as §3, §4
(§6) The following procedure was performed to evaluate the inhibitory potency of the evaluated compounds. • 14. An assay buffer was prepared by adding 3 ml 3% BSA to 47 ml stock buffer. • 15. Solution A was prepared by adding serially diluted inhibitors to the assay buffer. Inhibitors were three-fold diluted in stock buffer in a series of 8 from 15 uM. • 16. Solution B was prepared by adding human, mouse or porcine PLA2 to the assay buffer. This solution was prepared immediately before use to minimize enzyme activity loss. • 17. Solution C was prepared by adding 30 ul PPyrPM stock solution to 90 ul ethanol, and then all 120 ul of PPyrPM solution was transferred drop-wise over approximately 1 min to the continuously stirring 8.82 ml assay buffer to form a final concentration of 4.2 uM PPyrPM vesicle solution. • 18. […]

[3] = target: T3, human group 1B PLA2 (hps PLA2) (Homo sapiens, UniProt P04054); test: as above; format: biochemical
T3 construct: made in house; host or cells: E. coli
T3 sequence (P04054 23-148): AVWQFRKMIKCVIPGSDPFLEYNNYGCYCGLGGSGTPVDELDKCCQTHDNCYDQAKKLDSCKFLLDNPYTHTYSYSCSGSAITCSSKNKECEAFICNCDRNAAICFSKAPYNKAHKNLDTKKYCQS
Excerpt: as §1, §2, §5, §3, §4, §6

[4] = Mouse pharmacokinetic study, IV vs oral (Example 18); format: in vivo, male CD-1 mice; settings: PO 30 mg/kg vs IV 3 mg/kg, serum by LC/MS/MS; for bioavailability: male, CD-1, mouse
Method: The plasma exposure of male CD-1 mice to indole and indole-related test articles (TAs) following intravenous (IV, 3 mg/kg) and oral (PO, 30 mg/kg) routes of administration was measured. This model was used to investigate the bioavailability of indole and indole-related TAs in mouse. Mice were selected for the study since they are an accepted species frequently used in pre-clinical evaluation of drugs intended for human use.
Male CD-1 mice (7-8 weeks old) were obtained from Charles River Laboratories (Wilmington, Mass.). Two groups (N=18 and 27) of male CD-1 mice were used for the study. Upon arrival, the animals were placed on Rodent Diet 5001 (Purina Mills, Inc., St. Louis, Mo.).
On study day (−1), indole and indole-related TAs were formulated for oral or IV dosing by mixing the formulation components with test article in the proportions described in Table 10.1. The components were mixed by vortexing and sonicating in a warming bath for 60 minutes. Animals were fasted overnight prior to start of the study. On study day (1), formulations were sonicated for an hour to make sure that no visible particles were present prior to dosing, or if present were evenly distributed in suspension. Formulated test article were stirred continuously during dosing.
All animals were weighed on study day (1) and the body weights were recorded and used for dose calculation. The animals were dosed by either PO or IV route as outlined in Table 10.2. Blood samples (0.5 mL) were collected at specified time intervals into labeled, yellow-capped Microtainer tubes. The tubes were centrifuged (8,000×g, 10 min). Serum was then pipetted off into labeled Eppendorf® tubes and frozen at −80° C. Clinical observations were recorded as needed.
Analysis of serum samples was performed by LC/MS/MS (Waters Quattro Premier, Milford, Mass.). Areas under curves (AUC) were calculated using Graphpad Prism Version 4. Bioavailability was calculated using the following equation: (Bioavailability)=(AUC0-t,oral/AUC0-t,iv)×(Doseiv/Doseoral)×100
where AUC0-t=total area under curve at the last measurable time point

[5] = porcine pancreas secreted PLA2, read-out: ILYPSA IC50 pps PLA2
[6] = mouse pancreas secreted PLA2, read-out: ILYPSA IC50 mps PLA2
[7] = human pancreas secreted PLA2, read-out: ILYPSA IC50 hps PLA2

Row | Compound | IC50 [1, 5] | IC50 [2, 6] | IC50 [3, 7] | bioavailability ([4]; in vivo) | other results
1 | Cc1c(C(=O)C(N)=O)c2c(OCC(=O)NS(C)(=O)=O)nccc2n1Cc1ccccc1-c1ccccc1 [ILY-II-14, 2-(3-(2-amino-2-oxoacetyl)-1-(biphenyl-2-ylmethyl)-2-methyl-1H-pyrrolo[3,2-c]pyridin-4-yloxy)-N-(methylsulfonyl)acetamide] |  |  |  |  | IC50 [1]: 40 nM; IC50 [2]: 590 nM; IC50 [3]: 690 nM; bioavailability [4]: 14.7%
2 | Cc1c(C(=O)C(N)=O)c2c(OCC(=O)O)cccc2n1CCCCCCCCCCCCOc1ccc(C(C)(C)c2ccc(OCCCCCCCCCCCCn3c(C)c(C(=O)C(N)=O)c4c(OCC(=O)O)cccc43)cc2)cc1 [ILY-V-30, 2,2′-(1,1′-(12,12′-(4,4′-(propane-2,2-diyl)bis(4,1-phenylene))bis(oxy)bis(dodecane-12,1-diyl))bis(3-(2-amino-2-oxoacetyl)-2-methyl-1H-indole-4,1-diyl))bis(oxy)diacetic acid] | < 20 nM | 190 nM | 430 nM | 0% | 
3 | Cc1c(C(=O)C(N)=O)c2c(OCC(=O)O)cccc2n1CCCCCCCCCCCCOc1ccccc1-c1ccccc1OCCCCCCCCCCCCn1c(C)c(C(=O)C(N)=O)c2c(OCC(=O)O)cccc21 [ILY-V-37, [3-Aminooxalyl-1-(12-{2′-[12-(3-aminooxalyl-4-carboxymethoxy-2-methyl-indol-1-yl)-dodecyloxy]-biphenyl-2-yloxy}-dodecyl)-2-methyl-1H-indol-4-yloxy]-acetic acid] | 200 nM | 230 nM | 270 nM | 0.15% | 
4 | Cc1c(C(=O)C(N)=O)c2c(OCC(=O)O)cccc2n1CCCCCCCCCCCCOc1cc(OCCCCCCCCCCCCn2c(C)c(C(=O)C(N)=O)c3c(OCC(=O)O)cccc32)cc(OCCCCCCCCCCCCn2c(C)c(C(=O)C(N)=O)c3c(OCC(=O)O)cccc32)c1 [ILY-V-32, 2,2,′,2″-(1,1′,1″-(12,12′,12″-(benzene-1,3,5-triyltris(oxy))tris(dodecane-12,1-diyl))tris(3-(2-amino-2-oxoacetyl)-2-methyl-1H-indole-4,1-diyl))tris(oxy)triacetic acid] | 90 nM | 130 nM | 60 nM |  | Bioavailability (%) [4]: 0.00%
5 | Cc1c(C(=O)C(N)=O)c2c(OC(C(=O)O)C(C)C)cccc2n1CCCCCCCCCCCCOc1ccccc1OCCCCCCCCCCCCn1c(C)c(C(=O)C(N)=O)c2c(OC(C(=O)O)C(C)C)cccc21 (stereo not drawn) [ILY-V-33, 2,2′-(1,1′-(12,12′-(1,2-phenylenebis(oxy))bis(dodecane-12,1-diyl))bis(3-(2-amino-2-oxoacetyl)-2-methyl-1H-indole-4,1-diyl))bis(oxy)bis(3-methylbutanoic acid)] | 240 nM | 200 nM | 220 nM | 8.75% | 
6 | Cc1c(C(=O)C(N)=O)c2c(OCC(=O)NS(=O)(=O)CCCC(=O)O)cccc2n1Cc1ccccc1 [ILY-IV-40, 4-[2-(3-Aminooxalyl-1-benzyl-2-methyl-1H-indol-4-yloxy)-acetylsulfamoyl]-butyric acid] |  |  |  |  | Bioavailability (%) [4]: 0.50%
7 | Cc1c(C(=O)C(N)=O)c2c(OC(C(N)=O)C(C)C)cccc2n1Cc1ccccc1 (stereo not drawn) [ILY-IV-45, 2-(3-(2-amino-2-oxoacetyl)-1-benzyl-2-methyl-1H-indol-4-yloxy)-3-methylbutanamide] | 1030 nM |  |  |  | inhibition at 15 µM ([2]; read-out: ILYPSA % inhibition at 15 μM mps PLA2, 15 μM, mouse pancreas secreted PLA2): 65.5%; inhibition at 15 µM ([3]; read-out: ILYPSA % inhibition at 15 μM hps PLA2, 15 μM, human pancreas secreted PLA2): 74%
8 | Cc1c(C(=O)C(N)=O)c2c(OCC(=O)O)cccc2n1CCCCCCCCCCCCOc1ccc(-c2ccc(OCCCCCCCCCCCCn3c(C)c(C(=O)C(N)=O)c4c(OCC(=O)O)cccc43)cc2)cc1 [ILY-V-36, [3-Aminooxalyl-1-(12-{4′-[12-(3-aminooxalyl-4-carboxymethoxy-2-methyl-indol-1-yl)-dodecyloxy]-biphenyl-4-yloxy}-dodecyl)-2-methyl-1H-indol-4-yloxy]-acetic acid] | 440 nM | 920 nM | 1250 nM |  | 
9 | Cc1c(C(=O)C(N)=O)c2c(OCC(=O)O)cccc2n1CCCCCCCCCCCCNCCCCCCCCCCCCn1c(C)c(C(=O)C(N)=O)c2c(OCC(=O)O)cccc21 [ILY-V-45, (3-Aminooxalyl-1-{12-[12-(3-aminooxalyl-4-carboxymethoxy-2-methyl-indol-1-yl)-dodecylamino]-dodecyl}-2-methyl-1H-indol-4-yloxy)-acetic acid] | 40 nM | 70 nM | 120 nM |  | 
